Results published in PMC12386561, “Broad-Spectrum Antimicrobial Potential of the γ-Core Motif Peptides of Filipendula ulmaria for Practical Applications in Agriculture and Medicine” (International Journal of Molecular Sciences, 2025).
Residues, ends and D or L forms follow the SMILES beside them.

How the values were obtained:
[1] = test system: Pectobacterium carotovorum subsp. carotovorum VKM B-1247; assay: Antimicrobial activity assay against bacteria, growth inhibition in microtiter plates; type: cell-based; conditions: modified YPD-P medium, peptide 0.5–300 µM, 30 °C, 24 h, absorbance 594 nm, triplicate, mean ± SD
Excerpt: (§1) The IC50 values are presented as mean ± standard deviations.

[2] = test system: F. solani VKM F-142; type: cell-based, Fusarium solani; conditions: spores in half-strength potato dextrose broth, peptide 5–300 µM, 48 h, absorbance 595 nm, triplicate, mean ± SD; for IC50: read-out: IC50 against F. solani
Description: (§2) The inhibitory activity of peptides on spore germination and growth of fungi was tested against nine fungal strains from the VKM: Fusarium culmorum VKM F-2303, F. oxysporum VKM F-137, F. solani VKM F-142, F. verticillioides VKM F-670, Aspergillus unguis VKM F-1754, Bipolaris sorokiniana VKM F-4006, Botrytis cinerea VKM F-4549, Rhizoctonia solani VKM F-895, and Penicillium gladioli VKM F-2088. The fungi were cultivated on potato dextrose agar at 25 °C for 7–8 days, while B. sorokiniana and B. cinerea were grown for 10–12 days. Spores were obtained by washing from the surface of the mycelia with sterile distilled water and filtered through a sterile filter. The filtrate was centrifuged at 6000 rpm for 15 min. The precipitate was washed three times with sterile distilled water and centrifuged at 10,000 rpm for 2 min. A total of 1 mL of sterile aqueous 20% glycerol solution was added to the spores, and spores were stored at −20 °C.
(§3) The antifungal effect of peptides was determined in microtiter plates by measuring the absorbance of the spore suspension in the presence of the peptide relative to the control. In the wells of a plate, 90 µL of spore suspension in half-strength potato dextrose broth at a concentration of 2000–3000 spores in 100 µL was mixed with 10 µL of aqueous solutions of peptides to obtain final concentrations of 5–300 µM. Each experiment was carried out in triplicate. The concentration of spores in the suspension was determined in a Goryaev chamber. The absorbance was recorded at 595 nm on a FilterMax F5 Multi-Mode Microplate Reader (Molecular Devices, San Jose, CA, USA) after 48 h of incubation. The antimicrobial activity was expressed in IC50 values.

[3] = test system: C. tropicalis VKM Y-2771; type: cell-based, Candida tropicalis; conditions: YPD-P medium, peptide 0.5–300 µM, 30 °C, 24 h, absorbance 594 nm, triplicate, mean ± SD; read-out: IC50 against C. tropicalis
Excerpt: as §1

[4] = test system: Clavibacter michiganensis subsp. michiganensis VKM Ac-1403; assay: Antimicrobial activity assay against bacteria, growth inhibition in microtiter plates; type: cell-based; conditions: modified YPD-P medium, peptide 0.5–300 µM, 30 °C, 24 h, absorbance 594 nm, triplicate, mean ± SD
Excerpt: as §1

[5] = test system: Bipolaris sorokiniana VKM F-4006; assay: Antifungal activity assay, spore germination and growth; type: cell-based; conditions: spores in half-strength potato dextrose broth, peptide 5–300 µM, 48 h, absorbance 595 nm, triplicate, mean ± SD; read-out: IC50 against B. sorokiniana
Description: as §2, §3

[6] = test system: Fusarium culmorum VKM F-2303; assay: as above; type: cell-based; conditions: spores in half-strength potato dextrose broth, peptide 5–300 µM, 48 h, absorbance 595 nm, triplicate, mean ± SD; for IC50: read-out: IC50 against F. culmorum
Description: as §2, §3

[7] = test system: F. oxysporum VKM F-137; type: cell-based, Fusarium oxysporum; conditions: spores in half-strength potato dextrose broth, peptide 5–300 µM, 48 h, absorbance 595 nm, triplicate, mean ± SD; for IC50: read-out: IC50 against F. oxysporum
Description: as §2, §3

[8] = test system: F. verticillioides VKM F-670; type: cell-based, Fusarium verticillioides; conditions: spores in half-strength potato dextrose broth, peptide 5–300 µM, 48 h, absorbance 595 nm, triplicate, mean ± SD; for IC50: read-out: IC50 against F. verticillioides
Description: as §2, §3

[9] = test system: Pseudomonas savastanoi pv. savastanoi VKM B-1546; type: cell-based; conditions: medium without glucose, peptide 0.5–300 µM, 30 °C, 24 h, absorbance 594 nm, triplicate, mean ± SD; for IC50: read-out: IC50 against P. savastanoi
Excerpt: as §1

[10] = test system: Candida albicans VKM Y-2994; type: cell-based; conditions: YPD-P medium, peptide 0.5–300 µM, 30 °C, 24 h, absorbance 594 nm, triplicate, mean ± SD; read-out: IC50 against C. albicans
Excerpt: as §1

[11] = test system: Penicillium gladioli VKM F-2088; type: cell-based; conditions: spores in half-strength potato dextrose broth, peptide 5–300 µM, 48 h, absorbance 595 nm, triplicate, mean ± SD; read-out: IC50 against P. gladioli
Description: as §2, §3

[12] = test system: Botrytis cinerea VKM F-4549; type: cell-based; conditions: spores in half-strength potato dextrose broth, peptide 5–300 µM, 48 h, absorbance 595 nm, triplicate, mean ± SD; read-out: IC50 against B. cinerea
Description: as §2, §3

[13] = test system: Aspergillus unguis VKM F-1754; type: cell-based; conditions: spores in half-strength potato dextrose broth, peptide 5–300 µM, 48 h, absorbance 595 nm, triplicate, mean ± SD; read-out: IC50 against A. unguis
Description: as §2, §3

[14] = test system: Cryptococcus neoformans VKM Y-2755; conditions: read-out: IC50 against C. neoformans; YPD-P medium, peptide 0.5–300 µM, 30 °C, 24 h, absorbance 594 nm, triplicate, mean ± SD
[15] = test system: Rhizoctonia solani VKM F-895; assay: Antifungal activity assay, spore germination and growth; type: cell-based; conditions: spores in half-strength potato dextrose broth, peptide 5–300 µM, 48 h, absorbance 595 nm, triplicate, mean ± SD; read-out: IC50 against R. solani
Description: as §2, §3

Compound | IC50 [1] | IC50 [2] | IC50 [4] | IC50 [5] | IC50 [6] | IC50 [7] | IC50 [9] | IC50 [10] | IC50 [12] | also measured
CC[C@H](C)[C@H](NC(=O)[C@H](Cc1c[nH]cn1)NC(=O)[C@H](CO)NC(=O)[C@H](CS)NC(=O)[C@H](CCCCN)NC(=O)CN)C(=O)N[C@@H](CC(C)C)C(=O)N[C@@H](CCCNC(=N)N)C(=O)N[C@@H](CCCNC(=N)N)C(=O)N[C@@H](CS)C(=O)N[C@@H](Cc1ccccc1)C(=O)N[C@@H](CS)C(=O)N[C@H](C(=O)N[C@H](C(=O)N[C@@H](Cc1c[nH]cn1)C(=O)N[C@@H](CS)C(=O)O)[C@@H](C)O)[C@@H](C)O [FuD0] (H-GKCSHILRRCFCTTHC-OH; N-terminus and C-terminus assumed) | > 300 µM | – | – | – | – | – | – | – | – | –
CC[C@H](C)[C@H](NC(=O)[C@H](CS)NC(=O)[C@H](C)NC(=O)CN)C(=O)N[C@@H](C)C(=O)N[C@@H](CCCNC(=N)N)C(=O)N[C@@H](CS)C(=O)N[C@@H](CCCNC(=N)N)C(=O)N[C@@H](CC(C)C)C(=O)N[C@@H](CO)C(=O)N[C@@H](CO)C(=O)N[C@@H](CCCNC(=N)N)C(=O)N1CCC[C@H]1C(=O)N[C@@H](CC(N)=O)C(=O)N[C@@H](CC(C)C)C(=O)N[C@@H](CS)C(=O)N[C@@H](CCCCN)C(=O)N[C@@H](CCCNC(=N)N)C(=O)O [γ48-67FuSN6] (H-GACIARCRLSSRPNLCKR-OH; N-terminus and C-terminus assumed) | > 300 µM | 51.4 ± 0.9 µM | 34.7 ± 0.5 µM | 46.2 ± 3.2 µM | 19.3 ± 1.2 µM | 15.8 ± 0.6 µM | 97.2 ± 0.2 µM | > 300 µM | 154 ± 4.4 µM | IC50 [3]: 1.7 ± 0.6 µM; IC50 [8]: 38 ± 4.6 µM; IC50 [11]: 93.8 ± 4.2 µM; IC50 [13]: 2.1 µM; IC50 [14]: 5.5 ± 0.2 µM
CC(C)C[C@H](NC(=O)[C@H](CCCCN)NC(=O)[C@H](CS)NC(=O)[C@H](CCCNC(=N)N)NC(=O)CN)C(=O)N[C@@H](CO)C(=O)N[C@@H](CO)C(=O)N[C@@H](CCCNC(=N)N)C(=O)N1CCC[C@H]1C(=O)N[C@@H](CCCCN)C(=O)N[C@@H](CC(C)C)C(=O)N[C@@H](CS)C(=O)N[C@@H](CCCCN)C(=O)N[C@@H](CCCNC(=N)N)C(=O)O [γ54-69FuSN5] (H-GRCKLSSRPKLCKR-OH; N-terminus and C-terminus assumed) | > 300 µM | – | – | > 300 µM | – | – | – | – | > 300 µM | IC50 [15]: > 300 µM
CC[C@H](C)[C@H](NC(=O)[C@H](Cc1c[nH]cn1)NC(=O)[C@H](CO)NC(=O)[C@H](CS)NC(=O)[C@H](CCCCN)NC(=O)CN)C(=O)N[C@@H](CC(C)C)C(=O)N[C@@H](CCCNC(=N)N)C(=O)N[C@@H](CCCNC(=N)N)C(=O)N[C@@H](CS)C(=O)N[C@@H](CCCNC(=N)N)C(=O)N[C@@H](CS)C(=O)N[C@@H](CO)C(=O)N[C@@H](CCCCN)C(=O)N[C@@H](CO)C(=O)N[C@@H](CS)C(=O)O [γ59-74FuDEFL1-1] (H-GKCSHILRRCRCSKSC-OH; N-terminus and C-terminus assumed) | > 300 µM | – | – | – | – | – | – | – | – | –
CC[C@H](C)[C@H](NC(=O)[C@H](Cc1c[nH]cn1)NC(=O)[C@H](CO)NC(=O)[C@H](CS)NC(=O)[C@H](CCCCN)NC(=O)CN)C(=O)N[C@@H](CC(C)C)C(=O)N[C@@H](CCCNC(=N)N)C(=O)N[C@@H](CCCNC(=N)N)C(=O)N[C@@H](CS)C(=O)N[C@@H](CCC(N)=O)C(=O)N[C@@H](CS)C(=O)N[C@@H](CC(C)C)C(=O)N[C@@H](CCCCN)C(=O)N[C@@H](CO)C(=O)N[C@@H](CS)C(=O)O [γ61-76FuDEFL1-7] (H-GKCSHILRRCQCLKSC-OH; N-terminus and C-terminus assumed) | > 300 µM | – | – | – | – | – | – | – | – | –
CSCC[C@H](NC(=O)[C@H](CC(=O)O)NC(=O)[C@@H](NC(=O)[C@H](Cc1ccc(O)cc1)NC(=O)[C@H](CS)NC(=O)[C@H](CO)NC(=O)CN)[C@@H](C)O)C(=O)N[C@H](C(=O)N[C@H](C(=O)N[C@@H](Cc1c[nH]cn1)C(=O)NCC(=O)N[C@@H](CC(N)=O)C(=O)N[C@@H](CCCNC(=N)N)C(=O)N[C@@H](CC(C)C)C(=O)N[C@@H](CCCCN)C(=O)N[C@@H](CS)C(=O)N1CCC[C@H]1C(=O)O)[C@@H](C)O)[C@@H](C)O [γ88-104FuSN3] (H-GSCYTDMTTHGNRLKCP-OH; N-terminus and C-terminus assumed) | > 300 µM | > 300 µM | > 300 µM | – | > 300 µM | > 300 µM | > 300 µM | > 300 µM | – | IC50 against F. solani [2]: inactive; IC50 against C. michiganensis [4]: failed to inhibit the growth; IC50 against P. carotovorum [1]: failed to inhibit the growth; IC50 against F. culmorum [6]: inactive; IC50 against F. oxysporum [7]: inactive; IC50 against F. verticillioides [8]: very low activity; IC50 against P. savastanoi [9]: failed to inhibit the growth
CC(C)C[C@H](NC(=O)CN)C(=O)N[C@@H](CS)C(=O)N[C@@H](CCCCN)C(=O)N[C@@H](Cc1ccc(O)cc1)C(=O)N[C@@H](CCCNC(=N)N)C(=O)N[C@@H](CS)C(=O)N[C@@H](CO)C(=O)N[C@@H](CC(C)C)C(=O)N[C@@H](Cc1c[nH]cn1)C(=O)N[C@@H](CO)C(=O)N[C@@H](CCCNC(=N)N)C(=O)N1CCC[C@H]1C(=O)N[C@@H](CC(N)=O)C(=O)N[C@H](C(=O)N[C@@H](CS)C(=O)N[C@@H](Cc1ccccc1)C(=O)N[C@@H](CCCNC(=N)N)C(=O)O)C(C)C [γ89-106SlSN9, reference compound] (H-GLCKYRCSLHSRPNVCFR-OH) | – | 50.5 ± 1.4 µM | 41.9 ± 0.5 µM | 55.1 ± 7 µM | 23.1 ± 4.5 µM | 34.1 ± 1 µM | 127.6 ± 0.9 µM | 214 ± 47.1 µM | 118 ± 12 µM | IC50 [3]: 6.1 ± 0.1 µM; IC50 [15]: 130 ± 2.9 µM; IC50 [8]: 32.3 ± 6.5 µM; IC50 [11]: 93.6 ± 5.2 µM; IC50 [13]: 3.3 ± 0.2 µM; IC50 [14]: 6.3 ± 3.8 µM
